Measurements published in patent publication US9422267B2, “Fused pyrimidine compounds and use thereof” (Medivation Technologies, Inc., priority 2012, dated 2016).
Several values for one entry are separate records, joined by “and”; a condition that tells them apart may be missing. Equal entries are not always repeated. Where two headings read alike, the source gives them in different places.

What was measured:
[1] = target: T1, MET (Homo sapiens, UniProt P08581); test: Caliper kinase profiling: MET; assay type: biochemical; conditions: for inhibition at 0.01 µM: 10 nM, read-out: Average % Inh @ 10 nM
T1 construct: purchased Caliper LifeSciences (ProfilerPro Kinase Selectivity Assay Kits)
T1 sequence (P08581 25-1390): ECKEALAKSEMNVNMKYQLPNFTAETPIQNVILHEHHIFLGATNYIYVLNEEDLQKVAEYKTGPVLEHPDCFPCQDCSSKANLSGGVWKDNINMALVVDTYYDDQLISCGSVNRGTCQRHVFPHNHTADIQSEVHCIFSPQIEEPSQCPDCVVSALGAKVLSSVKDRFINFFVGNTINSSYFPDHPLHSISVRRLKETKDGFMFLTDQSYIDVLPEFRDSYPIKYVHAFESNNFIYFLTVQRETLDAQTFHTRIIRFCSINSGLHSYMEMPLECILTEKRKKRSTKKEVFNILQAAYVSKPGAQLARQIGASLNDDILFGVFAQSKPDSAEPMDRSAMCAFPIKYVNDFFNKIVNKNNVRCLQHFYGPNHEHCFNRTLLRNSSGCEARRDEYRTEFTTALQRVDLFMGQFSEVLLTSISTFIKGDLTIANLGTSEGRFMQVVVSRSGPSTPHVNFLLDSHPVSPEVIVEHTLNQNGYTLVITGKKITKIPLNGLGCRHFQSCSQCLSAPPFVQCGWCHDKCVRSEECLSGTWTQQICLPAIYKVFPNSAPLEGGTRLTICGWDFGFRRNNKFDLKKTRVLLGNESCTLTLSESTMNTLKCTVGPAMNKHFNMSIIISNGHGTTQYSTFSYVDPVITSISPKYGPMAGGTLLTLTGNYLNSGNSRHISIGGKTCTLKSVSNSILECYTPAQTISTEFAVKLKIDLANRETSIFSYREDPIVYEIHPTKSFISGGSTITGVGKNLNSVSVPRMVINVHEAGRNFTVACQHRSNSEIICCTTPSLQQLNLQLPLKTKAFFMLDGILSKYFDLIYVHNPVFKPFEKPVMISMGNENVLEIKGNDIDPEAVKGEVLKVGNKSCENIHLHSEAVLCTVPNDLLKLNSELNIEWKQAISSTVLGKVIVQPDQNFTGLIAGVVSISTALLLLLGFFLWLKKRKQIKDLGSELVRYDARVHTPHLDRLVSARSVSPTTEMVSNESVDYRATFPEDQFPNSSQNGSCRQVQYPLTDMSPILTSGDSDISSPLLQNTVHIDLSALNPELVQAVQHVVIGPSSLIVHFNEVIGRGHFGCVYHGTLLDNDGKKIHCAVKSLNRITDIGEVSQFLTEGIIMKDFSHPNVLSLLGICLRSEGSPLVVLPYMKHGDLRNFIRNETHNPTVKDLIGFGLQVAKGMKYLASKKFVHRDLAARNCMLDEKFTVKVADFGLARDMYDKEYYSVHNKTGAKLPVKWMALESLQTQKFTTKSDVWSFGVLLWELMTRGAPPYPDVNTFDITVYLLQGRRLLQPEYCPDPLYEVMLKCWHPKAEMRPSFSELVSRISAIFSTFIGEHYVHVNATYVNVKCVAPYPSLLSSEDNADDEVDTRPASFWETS

[2] = target: T2, PYK2 (Homo sapiens, UniProt Q14289); test: Caliper kinase profiling: PYK2; assay type: biochemical; conditions: for inhibition at 0.01 µM: PYK2, 10 nM, read-out: Average % Inh @ 10 nM
T2 construct: purchased Caliper LifeSciences (ProfilerPro Kinase Selectivity Assay Kits)
T2 sequence (Q14289 whole entry): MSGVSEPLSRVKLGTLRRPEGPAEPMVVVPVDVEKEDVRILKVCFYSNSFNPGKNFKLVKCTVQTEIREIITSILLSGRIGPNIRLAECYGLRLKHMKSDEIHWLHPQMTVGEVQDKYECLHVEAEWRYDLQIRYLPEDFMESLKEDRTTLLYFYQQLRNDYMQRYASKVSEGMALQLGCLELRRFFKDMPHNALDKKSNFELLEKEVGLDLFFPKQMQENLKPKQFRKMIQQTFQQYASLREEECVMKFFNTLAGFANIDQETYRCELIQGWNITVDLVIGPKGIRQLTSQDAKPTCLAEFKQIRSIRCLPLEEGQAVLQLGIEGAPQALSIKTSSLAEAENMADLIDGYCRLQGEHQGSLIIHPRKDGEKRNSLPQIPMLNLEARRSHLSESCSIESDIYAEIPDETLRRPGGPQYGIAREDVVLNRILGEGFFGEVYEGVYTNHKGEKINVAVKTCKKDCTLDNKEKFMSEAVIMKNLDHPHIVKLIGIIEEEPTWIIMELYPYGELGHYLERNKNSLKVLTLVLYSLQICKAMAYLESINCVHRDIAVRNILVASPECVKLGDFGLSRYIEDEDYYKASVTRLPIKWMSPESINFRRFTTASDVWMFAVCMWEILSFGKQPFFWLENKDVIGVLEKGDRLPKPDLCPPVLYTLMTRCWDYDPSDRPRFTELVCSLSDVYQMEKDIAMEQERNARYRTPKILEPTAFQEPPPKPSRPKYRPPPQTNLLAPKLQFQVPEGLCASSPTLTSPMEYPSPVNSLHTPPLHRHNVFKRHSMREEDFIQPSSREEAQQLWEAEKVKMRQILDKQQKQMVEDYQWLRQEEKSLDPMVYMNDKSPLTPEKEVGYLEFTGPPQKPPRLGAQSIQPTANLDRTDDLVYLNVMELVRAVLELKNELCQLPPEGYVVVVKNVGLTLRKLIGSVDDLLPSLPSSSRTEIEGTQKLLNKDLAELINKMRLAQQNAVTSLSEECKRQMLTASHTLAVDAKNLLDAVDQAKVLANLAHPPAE

[3] = target: T3, ROS(ROS1) (Homo sapiens, UniProt P08922); test: Caliper kinase profiling: ROS(ROS1); assay type: biochemical; conditions: for inhibition at 0.01 µM: 10 nM, read-out: Average % Inh @ 10 nM
T3 construct: purchased Caliper LifeSciences (ProfilerPro Kinase Selectivity Assay Kits)
Text: ROS1 is a proto-oncogene and is highly expressed in many cancers.

[4] = test system: A549; test: Cell Titer-Glo cell viability: A549; assay type: cell-based; conditions: Homo sapiens, A549, 72 h, A549, non-small lung carcinoma
Description: (§1) This assay quantitates the ATP present in order to determine the number of viable cells in culture. Briefly, the compounds were incubated with the cells for 72 h, followed by cell lysis. The resulting luminescent signal is proportional to the amount of ATP present and, therefore, directly proportional to the number of cells present in culture.
(§2) Compound nos. […] These cell lines are derived from human lung carcinoma, colon adenocarcinoma, colon adenocarcinoma, colon carcinoma, acute promyelocytic leukemia, colon adenocarcinoma, colon adenocarcinoma (from metastatic site lymph node), respectively.
(§3) Compounds 2b, 5, 6b and 10a were tested along with derivatives in viability assays as described above by Caliper LifeSciences Systems (Hanover, Md.), in A549, HCT-15, HCT-116, MCF-7, MDA-MB-231, OVCAR3, T47D, COLO205, HT-29, BT-20, HCC1187, HL-60, MDA-MB-175, SW-620, and UACC812 cells.

[5] = test system: COLO 205; test: Cell Titer-Glo cell viability: COLO 205; assay type: cell-based; conditions: Homo sapiens, COLO 205, 72 h
Description: as §1, §2, §3

[6] = test system: T47D; test: Cell Titer-Glo cell viability: T47D; assay type: cell-based; conditions: Homo sapiens, breast cancer
Description: (§4) Compound nos. […] This panel of cell lines includes an ER− breast carcinoma, primary breast ductal carcinoma, prostate adenocarcinoma, mammary adenocarcinoma, mammary ductal carcinoma, mammary ductal carcinoma, ovary adenocarcinoma, ER+ breast carcinoma, ER-HER2+ mammary ductal carcinoma and an ER+ mammary ductal carcinoma, respectively.
as §1, §3

[7] = test system: MDA MB 231; test: Cell Titer-Glo cell viability: MDA MB 231; assay type: cell-based; conditions: Homo sapiens, MDAMB231, breast cancer
Description: as §4, §1, §3

[8] = test system: UACC 812; test: Cell Titer-Glo cell viability: UACC 812; assay type: cell-based; conditions: Homo sapiens
Description: as §4, §1, §3
The inhibitory effects of Compound 8a were tested in two cell lines.

[9] = test system: HCC 1187; test: Cell Titer-Glo cell viability: HCC 1187; assay type: cell-based; conditions: Homo sapiens
Description: as §4, §1, §3

[10] = target: T4, IGF1R (Homo sapiens, UniProt P08069); test: In vitro IGF-1R enzymatic assay (ADP-Glo kinase assay); assay type: biochemical; parameters: purchased Millipore 14-802
T4 sequence (P08069 31-1367): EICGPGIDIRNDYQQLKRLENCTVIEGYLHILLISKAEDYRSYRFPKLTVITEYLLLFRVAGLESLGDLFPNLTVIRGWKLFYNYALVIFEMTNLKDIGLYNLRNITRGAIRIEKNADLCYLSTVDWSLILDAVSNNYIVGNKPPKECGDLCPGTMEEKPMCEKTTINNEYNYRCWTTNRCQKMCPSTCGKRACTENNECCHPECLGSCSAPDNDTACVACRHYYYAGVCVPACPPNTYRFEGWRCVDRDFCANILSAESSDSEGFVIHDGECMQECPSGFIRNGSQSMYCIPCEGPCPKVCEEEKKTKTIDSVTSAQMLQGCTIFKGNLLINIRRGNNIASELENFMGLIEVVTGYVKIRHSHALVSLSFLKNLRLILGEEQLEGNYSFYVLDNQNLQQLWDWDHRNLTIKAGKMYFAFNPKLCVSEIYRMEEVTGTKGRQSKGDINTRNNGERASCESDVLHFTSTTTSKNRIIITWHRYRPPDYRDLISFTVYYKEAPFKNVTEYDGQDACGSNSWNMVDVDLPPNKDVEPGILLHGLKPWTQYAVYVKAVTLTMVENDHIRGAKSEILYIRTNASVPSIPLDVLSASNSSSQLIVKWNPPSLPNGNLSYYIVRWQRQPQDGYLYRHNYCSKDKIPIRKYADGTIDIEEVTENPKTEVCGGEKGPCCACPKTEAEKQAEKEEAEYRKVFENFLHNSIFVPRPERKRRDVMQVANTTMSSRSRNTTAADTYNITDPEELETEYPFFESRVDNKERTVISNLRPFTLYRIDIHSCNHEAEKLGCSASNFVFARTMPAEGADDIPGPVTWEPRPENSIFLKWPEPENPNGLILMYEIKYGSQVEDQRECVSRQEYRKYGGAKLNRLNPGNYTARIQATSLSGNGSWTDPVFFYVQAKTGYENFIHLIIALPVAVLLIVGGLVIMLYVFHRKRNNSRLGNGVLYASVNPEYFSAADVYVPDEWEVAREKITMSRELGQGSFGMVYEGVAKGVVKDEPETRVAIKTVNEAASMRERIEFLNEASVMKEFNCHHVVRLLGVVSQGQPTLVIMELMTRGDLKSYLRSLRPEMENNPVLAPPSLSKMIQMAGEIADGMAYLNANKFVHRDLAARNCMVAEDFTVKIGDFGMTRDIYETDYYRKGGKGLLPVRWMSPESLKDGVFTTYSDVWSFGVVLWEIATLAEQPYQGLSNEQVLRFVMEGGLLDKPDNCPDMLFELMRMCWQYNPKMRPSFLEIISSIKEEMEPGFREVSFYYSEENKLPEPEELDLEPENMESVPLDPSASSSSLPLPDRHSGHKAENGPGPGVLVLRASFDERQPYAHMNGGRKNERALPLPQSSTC
Description: IC50 values of the compounds of the invention against IGF-1R and IR were measured in vitro using an ADP-Glo kinase assay Kit (Promega). […] Kinase reactions in both assays were conducted at 30° C. for 20 min with increasing concentrations of compounds of the invention.

[11] = target: T5, AurA (Homo sapiens, UniProt O14965); test: Caliper kinase profiling: AurA
T5 sequence (O14965 1-403): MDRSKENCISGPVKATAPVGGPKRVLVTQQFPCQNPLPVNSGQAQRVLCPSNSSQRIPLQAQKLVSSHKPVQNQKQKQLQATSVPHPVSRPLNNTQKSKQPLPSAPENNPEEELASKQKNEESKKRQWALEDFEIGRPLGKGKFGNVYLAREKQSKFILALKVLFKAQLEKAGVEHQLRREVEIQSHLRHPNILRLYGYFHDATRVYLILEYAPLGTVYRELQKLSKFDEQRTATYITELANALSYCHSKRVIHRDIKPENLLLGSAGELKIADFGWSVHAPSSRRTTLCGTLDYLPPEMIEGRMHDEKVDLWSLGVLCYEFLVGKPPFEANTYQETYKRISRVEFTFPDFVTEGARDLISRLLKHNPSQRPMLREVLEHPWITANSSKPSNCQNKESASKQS
Description: (§5) The compound was tested at concentrations of 1.0×10^−8 and 1.0×10^−9 M in the RapidKinase192™ panel in duplicate. […] The screening was performed using the Caliper EZReader2, a 4-sipper LabChip, and ProfilerPro Kinase Selectivity Assay Kits 1 and 2. The assay measures the conversion of a fluorescent peptide substrate to a phosphorylated product. Briefly, the reaction mixture was introduced through a capillary sipper onto the microfluidic chip, where the substrate and product were electrophoretically separated and detected by laser-induced fluorescence. The time-dependent fluorescence signal indicates the extent of the reaction.
(§6) The assays were conducted using the Caliper LabChip 3000 and a 12-sipper LabChip as described above.

[12] = target: AurB (Homo sapiens, UniProt Q96GD4); test: Caliper kinase profiling: AurB
AurB, sequence (Q96GD4 whole entry): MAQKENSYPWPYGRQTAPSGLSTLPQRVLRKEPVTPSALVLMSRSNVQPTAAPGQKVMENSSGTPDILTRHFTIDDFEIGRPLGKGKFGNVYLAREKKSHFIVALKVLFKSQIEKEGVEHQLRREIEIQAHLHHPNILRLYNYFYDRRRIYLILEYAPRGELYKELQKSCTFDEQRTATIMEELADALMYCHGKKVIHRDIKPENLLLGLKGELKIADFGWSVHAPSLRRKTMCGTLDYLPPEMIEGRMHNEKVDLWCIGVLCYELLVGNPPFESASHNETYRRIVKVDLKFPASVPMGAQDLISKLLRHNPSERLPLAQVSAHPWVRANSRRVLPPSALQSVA
Description: as §5, §6

[13] = target: T6, AurC (Homo sapiens, UniProt Q9UQB9); test: Caliper kinase profiling: AurC
T6 sequence (Q9UQB9 1-309): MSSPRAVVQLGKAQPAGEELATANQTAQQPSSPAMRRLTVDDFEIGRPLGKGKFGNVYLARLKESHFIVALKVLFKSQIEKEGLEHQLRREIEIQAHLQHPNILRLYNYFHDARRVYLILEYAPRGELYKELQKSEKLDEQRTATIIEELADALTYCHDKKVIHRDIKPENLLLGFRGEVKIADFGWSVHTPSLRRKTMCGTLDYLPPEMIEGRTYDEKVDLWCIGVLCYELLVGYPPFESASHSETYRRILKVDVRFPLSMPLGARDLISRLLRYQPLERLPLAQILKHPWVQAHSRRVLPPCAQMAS
Description: as §5, §6

[14] = target: NTRK2 (TRKB) (Homo sapiens, UniProt Q16620); test: Caliper kinase profiling: NTRK2 (TRKB); conditions: for inhibition at 0.01 µM: read-out: Average % Inh @ 10 nM; for inhibition of TrkB in panel of 11 kinases: 0.01 μM
Description: as §5
(§7) The kinases tested were AurA, AurB, AurC, AXL, FAK2, IGF1R, InsR, Mer, MET, TrkB and TrkC.
as §6

[15] = target: TRKC (NTRK3) (Homo sapiens, UniProt Q16288); test: Caliper kinase profiling: TRKC (NTRK3); conditions: for inhibition at 0.01 µM: read-out: Average % Inh @ 10 nM; for inhibition of TrkC in panel of 11 kinases: 0.01 μM
TRKC (NTRK3), sequence (Q16288 32-839): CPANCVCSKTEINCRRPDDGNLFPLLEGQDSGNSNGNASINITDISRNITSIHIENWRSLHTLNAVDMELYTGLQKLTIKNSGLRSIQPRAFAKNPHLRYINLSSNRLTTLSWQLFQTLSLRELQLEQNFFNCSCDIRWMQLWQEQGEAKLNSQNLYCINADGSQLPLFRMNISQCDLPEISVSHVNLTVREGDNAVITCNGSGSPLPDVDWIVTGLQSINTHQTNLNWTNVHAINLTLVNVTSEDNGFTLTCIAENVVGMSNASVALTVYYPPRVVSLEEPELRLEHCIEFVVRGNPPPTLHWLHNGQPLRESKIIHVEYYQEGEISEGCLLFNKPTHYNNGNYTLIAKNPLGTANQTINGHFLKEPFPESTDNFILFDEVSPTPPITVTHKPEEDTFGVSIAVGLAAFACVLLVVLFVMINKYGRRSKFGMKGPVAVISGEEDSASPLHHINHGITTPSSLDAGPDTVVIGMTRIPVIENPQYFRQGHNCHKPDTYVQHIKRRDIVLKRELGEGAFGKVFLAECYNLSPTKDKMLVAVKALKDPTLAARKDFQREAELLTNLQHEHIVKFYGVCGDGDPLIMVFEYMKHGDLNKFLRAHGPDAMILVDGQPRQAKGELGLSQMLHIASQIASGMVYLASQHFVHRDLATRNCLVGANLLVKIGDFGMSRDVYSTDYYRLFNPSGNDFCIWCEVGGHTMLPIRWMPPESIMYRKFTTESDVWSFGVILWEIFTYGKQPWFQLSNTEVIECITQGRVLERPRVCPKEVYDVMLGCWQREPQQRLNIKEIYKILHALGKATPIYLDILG
Description: as §5, §7, §6

[16] = target: T4, IGF1R; test: Caliper kinase profiling: IGF1R; assay type: biochemical; parameters: purchased Caliper LifeSciences (ProfilerPro Kinase Selectivity Assay Kits); conditions: for inhibition at 0.01 µM: 10 nM, read-out: Average % Inh @ 10 nM
Description: as §5

[17] = 1 nM, read-out: Average % Inh @ 1 nM
[18] = COLO-205, colon adenocarcinoma, 72 h
[19] = IGF-1R, ATP 100 μM, run N1, read-out: IC50 (M) N1
[20] = IGF-1R, ATP 100 μM, run N2, read-out: IC50 (M) N2
[21] = activated IGF-1R, read-out: IC50
[22] = 72 h incubation, Cell Titer-Glo
[23] = COLO205, colon cancer, 72 h incubation, Cell Titer-Glo
[24] = UACC 812, breast cancer, 72 h incubation, Cell Titer-Glo
[25] = HCC1187, HCC-1187, breast cancer, 72 h incubation, Cell Titer-Glo
[26] = 100 nM, read-out: Average % Inh @ 100 nM
[27] = 1 μM, read-out: Average % Inh @ 1 μM
[28] = read-out: Average % Inh @ 10 nM
[29] = read-out: Average % Inh @ 100 nM

CC(C)c1cc(Nc2nc(N3CCCC3C(=O)Nc3ccc(F)nc3)nc3c2CCC3)n[nH]1 (single isomer, unassigned) [Compound 8b]
inhibition at 0.001 µM [1, 17]: < 39%
inhibition at 0.01 µM [1]: 40 to 59%
inhibition at 0.001 µM ([2]; PYK2, 1 nM, read-out: Average % Inh @ 1 nM): < 39%
inhibition at 0.01 µM [2]: 40 to 59%
IC50 ([3]; ROS1, range of concentrations from 0.03 nM to 1): 0.015 µM
inhibition at 0.001 µM ([3]; ROS (ROS1), 1 nM, read-out: Average % Inh @ 1 nM): 40 to 59%
inhibition at 0.01 µM ([3]; ROS (ROS1)): > 60%
IC50 ([4]; 72 h): < 10 µM
IC50 [5, 18]: < 0.01 µM
IC50 ([6]; 72 h): < 1 µM
IC50 ([7]; 72 h): 10 µM
IC50 ([8]; UACC-812, UACC812, breast cancer, 72 h): < 10 µM
IC50 ([9]; HCC1187, breast cancer, 72 h): < 10 µM
Hill Slope N1 ([10]; IGF-1R, ATP 100 μM, run N1): 1.042
IC50 [10, 19]: 3.11e-09 M
Hill Slope N2 ([10]; IGF-1R, ATP 100 μM, run N2): 1.307
IC50 [10, 20]: 5.49e-09 M
IC50 [10, 21]: 5.1e-09 M
IC50 [11]: 0.132 µM
IC50 [12]: 0.0747 µM
IC50 [13]: 0.0414 µM
IC50 [14]: 0.0122 µM
inhibition at 0.001 µM ([14]; read-out: Average % Inh @ 1 nM): > 60%
inhibition at 0.01 µM [14]: > 60%
IC50 [15]: 0.003 µM
inhibition at 0.001 µM ([15]; read-out: Average % Inh @ 1 nM): > 60%
inhibition at 0.01 µM [15]: > 60%
inhibition at 0.001 µM [16, 17]: < 39%
inhibition at 0.01 µM [16]: > 60%

O=C(Nc1ccc(F)nc1)C1CCN1c1nc2c(c(Nc3cc(C4CC4)[nH]n3)n1)CCC2 (racemic) [Compound 5, 1-(4-(5-cyclopropyl-1H-pyrazol-3-ylamino)-6,7-dihydro-5H-cyclopenta[d]pyrimidin-2-yl)-N-(6-fluoropyridin-3-yl)azetidine-2-carboxamide]
IC50 [4, 22]: < 1 µM
IC50 [5, 23]: 0.1 µM
IC50 [6, 22]: < 1 µM
IC50 [7, 22]: < 10 µM
IC50 [8, 24]: < 100 µM
IC50 [9, 25]: < 1 µM
inhibition at 0.03 µM ([10]; activated IGF-1R, 30 nM, average, read-out: % Inh @ 30 nM Avg): 66%
IC50 [10, 21]: 1.3e-08 M and 1.7e-08 M
inhibition of TrkB in panel of 11 kinases [14]: strongly inhibited
inhibition of TrkC in panel of 11 kinases [15]: strongly inhibited

O=C(Nc1cnccn1)C1CCCN1c1nc2c(c(Nc3cc(C4CC4)[nH]n3)n1)CCC2 (single isomer, unassigned) [Compound 6b]
IC50 [4, 22]: < 1 µM
IC50 [5, 23]: < 0.1 µM
IC50 [6, 22]: < 1 µM
IC50 [7, 22]: < 1 µM
IC50 [8, 24]: 1 µM
IC50 [9, 25]: < 1 µM
IC50 [10, 21]: 6.5e-09 M
inhibition of TrkB in panel of 11 kinases [14]: strongly inhibited
inhibition of TrkC in panel of 11 kinases [15]: strongly inhibited

O=C(Nc1ccc(F)nc1)C1CCCN1c1nc2c(c(Nc3cc(C4CC4)[nH]n3)n1)CCC2 (single isomer, unassigned) [Compound 2b, 1-(4-(5-cyclopropyl-1H-pyrazol-3-ylamino)-6,7-dihydro-5H-cyclopenta[d]pyrimidin-2-yl)-N-(6-fluoropyridin-3-yl)pyrrolidine-2-carboxamide]
inhibition at 0.01 µM [1]: < 39%
inhibition at 0.1 µM [1, 26]: > 60%
inhibition at 1 µM [1, 27]: > 60%
inhibition at 0.01 µM [2]: < 39%
inhibition at 0.1 µM ([2]; PYK2, 100 nM, read-out: Average % Inh @ 100 nM): > 60%
inhibition at 1 µM ([2]; PYK2, 1 μM, read-out: Average % Inh @ 1 μM): > 60%
inhibition at 0.01 µM ([3]; ROS (ROS1)): > 60%
inhibition at 0.1 µM ([3]; ROS (ROS1), 100 nM, read-out: Average % Inh @ 100 nM): > 60%
inhibition at 1 µM ([3]; ROS (ROS1), 1 μM, read-out: Average % Inh @ 1 μM): > 60%
IC50 ([4]; 72 h): 1 µM
IC50 [4, 22]: < 1 µM
IC50 [5, 23]: < 0.1 µM
IC50 [5, 18]: < 0.01 µM
IC50 [6, 22]: 1 µM
IC50 [7, 22]: 1 µM
IC50 [8, 24]: < 10 µM
IC50 [9, 25]: 0.1 µM
Hill Slope N1 ([10]; IGF-1R, ATP 100 μM, run N1): 1.195
IC50 [10, 19]: 7.24e-09 M
Hill Slope N2 ([10]; IGF-1R, ATP 100 μM, run N2): 1.384
IC50 [10, 20]: 5.29e-09 M
IC50 [10, 21]: 6.1e-09 M
inhibition at 0.01 µM [11, 28]: < 39%
inhibition at 0.1 µM [11, 29]: > 60%
inhibition at 1 µM ([11]; read-out: Average % Inh @ 1 μM): > 60%
inhibition at 0.01 µM [12, 28]: 40 to 59%
inhibition at 0.1 µM [12, 29]: > 60%
inhibition at 1 µM ([12]; read-out: Average % Inh @ 1 μM): > 60%
inhibition at 0.01 µM [13, 28]: > 60%
inhibition at 0.1 µM [13, 29]: > 60%
inhibition at 1 µM ([13]; read-out: Average % Inh @ 1 μM): > 60%
inhibition at 0.01 µM [14]: > 60%
inhibition at 0.1 µM [14, 29]: > 60%
inhibition at 1 µM ([14]; read-out: Average % Inh @ 1 μM): > 60%
inhibition at 0.01 µM [15]: > 60%
inhibition at 0.1 µM [15, 29]: > 60%
inhibition at 1 µM ([15]; read-out: Average % Inh @ 1 μM): > 60%
inhibition at 0.01 µM [16]: < 39%
inhibition at 0.1 µM [16, 26]: 40 to 59%
inhibition at 1 µM [16, 27]: > 60%
